Consider 21 compounds from ChEMBL document CHEMBL4414565, “Furanocoumarins from the Roots of Angelica dahurica with Inhibitory Activity against Intracellular Reactive Oxygen Species Accumulation” (J Nat Prod, 2019).

In data set [1] the test system is HepG2. Briefly: Inhibition of H2O2-induced ROS accumulation in human HepG2 cells assessed as ROS generation at 10 uM preincubated for 1 hr followed by H2O2-stimulation and measured after 30 mins by H2DCFDA staining based flow cytometry (reference value: 100 +/- 11.53%). The data set is classed as functional. More on the design: scale not given: the % may be the effect or the level left. In general terms: A flow cytometer gives signals particle by particle.

For data set [2], the system named is HepG2. Nature of the data set: Cytotoxicity against human HepG2 cells assessed as cell viability at 10 uM incubated for 1 hr by EZ-Cytox cell viability assay. The data set is classed as cell-based. As to conditions: hepg2, 1 h.
Data set [3] relates to HepG2. Nature of the data set: Hepatoprotective activity against H2O2-induced cell death in human HepG2 cells assessed as cell viability at 10 uM preincubated for 1 hr followed by H2O2-stimulation and measured after 24 hrs by EZ-Cytox cell viability assay (reference value: 43.9 +/- 5.25%). It counts as functional. As to conditions: read-out: Activity.
The test system of data set [4] is HepG2. Nature of the data set: Hepatoprotective activity against H2O2-induced cell death in human HepG2 cells assessed as cell viability at 50 uM preincubated for 1 hr followed by H2O2-stimulation and measured after 24 hrs by EZ-Cytox cell viability assay (reference value: 43.9 +/- 5.25%). The data set is classed as functional. As to conditions: read-out: Activity.

Data set [5] has as its system HepG2. Briefly: Inhibition of H2O2-induced ROS accumulation in human HepG2 cells at 50 uM assessed as ROS generation preincubated for 1 hr followed by H2O2-stimulation and measured after 30 mins by H2DCFDA staining based flow cytometry (reference value: 100 +/- 11.53%). The data set is classed as functional. More on the design: scale not given: the % may be the effect or the level left.

For `COc1c2ccoc2c(OCC=C(C)C)c2oc(=O)ccc12` [PHELLOPTERIN], the figures for the Activity in the data set with HepG2 [1] and in the data set with HepG2 [2] were 58.3% and “Non-Toxic”, respectively. The viability at 10 µM with HepG2 [3] was determined as 57.6%.
In the same order, the values of `CC1(C)O[C@@H]1COc1c2ccoc2cc2oc(=O)ccc12` are 103.9%, “Non-Toxic” and 59.3%.
As to `COc1c2occc2c(OCC=C(C)C)c2ccc(=O)oc12` [KINIDILIN], the Activity with HepG2 [1] was 51.3%; in the data set on HepG2 [2], “Non-Toxic”. Further, in the data set with HepG2 [3], the viability at 10 µM was 60.5%.
Regarding `C/C=C/c1cc(OC)c(OC)c(OC)c1`, the Activity was 75.8% with HepG2 [1] and “Non-Toxic” in the data set with HepG2 [2]. In the data set with HepG2 [3], the viability at 10 µM stood at 62.2%.
Taken in the same sequence, the figures for `CC(C)=CCOc1c2occc2cc2ccc(=O)oc12` [PENTOSALEN] were 77.1%, “Non-Toxic” and 71.5%.
In the same order, the values of `COc1c2ccoc2c(OC/C=C(/C)COC(=O)CC(C)C)c2oc(=O)ccc12` are 90.1%, “Non-Toxic” and 58.5%.
Take `CC(C)=CCOc1c2occc2c(OC[C@H]2OC2(C)C)c2ccc(=O)oc12`: the Activity with HepG2 [1] is on record as 65.5%; with HepG2 [2] it was “Non-Toxic”. Moreover, the viability at 10 µM with HepG2 [3] came out at 56.2%.
For `O=C(/C=C/c1ccc(O)c(O)c1)O[C@H](Cc1ccc(O)c(O)c1)C(=O)O` [ROSMARINIC ACID], in the data set on HepG2 [4], the viability at 50 µM is 65.3%. Also, in the data set with HepG2 [5], the Activity is 49.3%.
Consider `C=C(C)[C@H](O)COc1c2ccoc2c(OCC=C(C)C)c2oc(=O)ccc12`, for which the Activity in the data set with HepG2 [1] is reported as 63.9%; in the data set with HepG2 [2] it was “Non-Toxic”. In the data set with HepG2 [3], the viability at 10 µM was determined as 50.9%.
In the same order, the values of `COc1c2ccoc2c(OC[C@@H](O)C(C)(C)OC)c2oc(=O)ccc12` are 52%, “Non-Toxic” and 40.4%.
In the same order, the values of `COc1c2ccoc2cc2oc(=O)ccc12` [BERGAPTEN] are 92.7%, “Non-Toxic” and 60.3%.
Taken in the same sequence, the figures for `COc1c2occc2cc2ccc(=O)oc12` [METHOXSALEN] were 77%, “Non-Toxic” and 56.5%.
Consider `CC(C)=CCOc1c2occc2c(OC[C@@H](O)C(C)(C)O)c2ccc(=O)oc12`, for which the Activity in the data set on HepG2 [1] is 78%; in the data set with HepG2 [2], “Non-Toxic”. Moreover, in the data set with HepG2 [3], the viability at 10 µM is 51%.
In the same order, the values of `COc1c2c(c(OCC=C(C)C)c3occc13)O[C@@]1(C=C2)O[C@H](COc2c3ccoc3cc3oc(=O)ccc23)C(C)(C)O1` are 100%, “Non-Toxic” and 63%.
As to `CC(C)(O)[C@H](O)COc1c2ccoc2cc2oc(=O)ccc12` [OXYPEUCEDANIN HYDRATE], the results for the Activity with HepG2 [1] and with HepG2 [2] were 92.8% and “Non-Toxic”, respectively. Further, the viability at 10 µM in the data set on HepG2 [3] was found to be 47.5%.
In the same order, the values of `CC(C)=CCOc1c2ccoc2cc2oc(=O)ccc12` [ISOIMPERATORIN] are 71.1%, “Non-Toxic” and 67%.
Taken in the same sequence, the figures for `COc1c2ccoc2c(O)c2oc(=O)ccc12` were 38.1%, “Non-Toxic” and 34.6%.
In the same order, the values of `CC(C)=CCOc1c2ccoc2c(OCC(O)C(C)(C)O)c2oc(=O)ccc12` (single isomer, unassigned; (-)) are 85.3%, “Non-Toxic” and 61.1%.
As to `COc1c2c(c(OCC=C(C)C)c3occc13)O[C@]1(C=C2)O[C@H](COc2c3ccoc3cc3oc(=O)ccc23)C(C)(C)O1`, the Activity is on record as 79.9% in the data set on HepG2 [1] and “Non-Toxic” in the data set on HepG2 [2]. Moreover, in the data set on HepG2 [3], the viability at 10 µM stood at 64.1%.
Consider `COc1c2ccoc2c(OC[C@@H](O)C(C)(C)O)c2oc(=O)ccc12` [BYAKANGELICIN], for which the Activity in the data set on HepG2 [1] is listed as 57.9%; with HepG2 [2], “Non-Toxic”. Besides, the viability at 10 µM in the data set on HepG2 [3] was found to be 46.5%.
For the compound `O=c1ccc2cc3ccoc3cc2o1` [PSORALEN], the results for the Activity in the data set on HepG2 [1] and with HepG2 [2] were 101.4% and “Non-Toxic”, respectively. In addition, the viability at 10 µM in the data set on HepG2 [3] was found to be 55.5%.
